# Values joined by “and” are separate entries in the source; they are usually repeats but may differ in a detail not shown here. Equal values may be shown once. Read-outs that look alike come from different tables or passages of the source.
# What was measured:
# [1] = test system: A. baumannii strain 5075 (AB5075); experiment: Broth microdilution MIC determination of compound alone; format: cell-based; details: Acinetobacter baumannii
# In short: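 MIC by twofold serial dilution in cation-adjusted Mueller-Hinton broth, inoculum 5×10^5 CFU/mL from 6 h day cultures, top concentration 200 μM (64 μg/mL). Incubated stationary at 37° C. for 16 hours; MIC taken as lowest concentration with no visible growth.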
# [2] = test system: AB 5075; experiment: Backlight assay for membrane permeability; format: cell-based, Acinetobacter baumannii; details: AB5075
# Protocol: The assay was initially performed at 10, 20 and 30 μM with compounds 1 and 4 (Table 16). […] When the concentration is lowered to 20 μM, the percent of membrane disrupted also decreases to 78% and 83% respectively. When further decreasing the concentration to 10 μM, the membrane disruption decreases to 39 and 44% respectively. Due to the similar structure and lack of potentiation activity, compound 25 was screened at 10, 20 and 30 μM to compare membrane permeability with that of active compounds. The percent disruption was less than seen with compounds 1 and 4 being 53, 54 and 60% respectively.
# [3] = test system: A. baumannii strain 8967; experiment: Potentiation of clarithromycin and vancomycin against clinical isolate; format: cell-based, Acinetobacter baumannii; details: with compound at 30 μM
# Protocol: (§1) As previously stated, A. baumannii 5075 was chosen for these studies due to its virulence and multidrug resistance, but to further analyze the activity of our lead compounds, 23 A. baumannii clinical isolates obtained from Walter Reed Army Institute of Research (WRAIR) were tested.
# (§2) Day Cultures (6 h) were subcultured to 5×10^5 CFU/mL in cation adjusted Mueller-Hinton broth (CAMHB). […] One milliliter of the resulting solution was aliquoted into a separate culture tube and was dosed with antibiotic so that the resulting concentration was the highest desirable concentration to be tested. Bacteria treated with antibiotic alone were used as a control. Row one of a 96-well plate was filled with 200 μL of the antibiotic/compound solution, and the remaining rows were filled with 100 μL of the remaining 4 mL bacterial subculture. The wells in row one were mixed five times before 100 μL was transferred to the following row (row two). Row two was then mixed five times, and 100 μL was transferred to row three. This process was repeated until the second to last row had been reached. The last row is left unexposed to antibiotic in order to serve as a negative control. The antibiotic only treated bacteria was plated by aliquoting 200 μL of the treated bacteria into row one and filling the remaining rows with untreated bacteria from the original bacteria subculture. The rows were mixed in the same way as described above. Plates were covered with Glad Press n'Seal and were incubated under stationary conditions at 37° C. for 16 hours. MIC values were recorded as the lowest concentration at which no bacterial growth was observed. Fold reductions were determined by comparison of the compound treated wells with the antibiotic only treated control wells.
# [4] = test system: A. baumannii strain 3927; experiment: as above; format: cell-based, Acinetobacter baumannii; details: with compound at 30 μM
# Protocol: as §1, §2
# [5] = test system: A. baumannii strain 3785; experiment: as above; format: cell-based, Acinetobacter baumannii; details: with compound at 30 μM
# Protocol: as §1, §2
# [6] = test system: A. baumannii strain 4957; experiment: as above; format: cell-based, Acinetobacter baumannii; details: with compound at 30 μM
# Protocol: as §1, §2
# [7] = test system: A. baumannii strain 4052; experiment: as above; format: cell-based, Acinetobacter baumannii; details: with compound at 30 μM
# Protocol: as §1, §2
# [8] = test system: A. baumannii strain 4027; experiment: as above; format: cell-based, Acinetobacter baumannii; details: with compound at 30 μM
# Protocol: as §1, §2
# [9] = test system: A. baumannii strain 4026; experiment: as above; format: cell-based, Acinetobacter baumannii; details: with compound at 30 μM
# Protocol: as §1, §2
# [10] = test system: A. baumannii strain 4490; experiment: as above; format: cell-based, Acinetobacter baumannii; details: with compound at 30 μM
# Protocol: as §1, §2
# [11] = test system: A. baumannii strain 4448; experiment: as above; format: cell-based, Acinetobacter baumannii; details: with compound at 30 μM
# Protocol: as §1, §2
# [12] = test system: A. baumannii strain 4025; experiment: as above; format: cell-based, Acinetobacter baumannii; details: with compound at 30 μM
# Protocol: as §1, §2
# [13] = test system: A. baumannii strain 5197; experiment: as above; format: cell-based, Acinetobacter baumannii; details: with compound at 30 μM
# Protocol: as §1, §2
# [14] = test system: A. baumannii strain 4795; experiment: as above; format: cell-based, Acinetobacter baumannii; details: with compound at 30 μM
# Protocol: as §1, §2
# [15] = test system: A. baumannii strain 3806; experiment: as above; format: cell-based, Acinetobacter baumannii; details: with compound at 30 μM
# Protocol: as §1, §2
# [16] = test system: A. baumannii strain 4878; experiment: as above; format: cell-based, Acinetobacter baumannii; details: with compound at 30 μM
# Protocol: as §1, §2
# [17] = test system: A. baumannii strain 4269; experiment: as above; format: cell-based, Acinetobacter baumannii; details: with compound at 30 μM
# Protocol: as §1, §2
# [18] = test system: A. baumannii strain 3560; experiment: as above; format: cell-based, Acinetobacter baumannii; details: with compound at 30 μM
# Protocol: as §1, §2
# [19] = test system: A. baumannii strain 4857; experiment: as above; format: cell-based, Acinetobacter baumannii; details: with compound at 30 μM
# Protocol: as §1, §2
# [20] = test system: A. baumannii strain 4991; experiment: as above; format: cell-based, Acinetobacter baumannii; details: with compound at 30 μM
# Protocol: as §1, §2
# [21] = test system: A. baumannii strain 5711; experiment: as above; format: cell-based, Acinetobacter baumannii; details: with compound at 30 μM
# Protocol: as §1, §2
structure (smiles),measurement,setting,value
Nc1nc(-c2ccc(NC(=O)c3cc(Cl)cc(Cl)c3)cc2)c[nH]1 [Compound 1],MIC,[1],100 µM
same,Disrupted bacterial membrane (%),[2]; compound at 10 μM,39% and 38.8%
same,Disrupted bacterial membrane (%),[2]; compound at 20 μM,78%
same,Clarithromycin MIC,[3],0.25 µg/mL
same,Vancomycin MIC,[3],4 µg/mL
same,Clarithromycin MIC,[4],0.5 µg/mL
same,Vancomycin MIC,[4],8 µg/mL
same,Clarithromycin MIC,[5],0.5 µg/mL
same,Vancomycin MIC,[5],1 µg/mL
same,Clarithromycin MIC,[6],0.5 µg/mL
same,Vancomycin MIC,[6],8 µg/mL
same,Clarithromycin MIC,[7],≤0.25 µg/mL
same,Vancomycin MIC,[7],4 µg/mL
same,Clarithromycin MIC,[8],≤0.25 µg/mL
same,Vancomycin MIC,[8],1 µg/mL
same,Clarithromycin MIC,[9],0.5 µg/mL
same,Vancomycin MIC,[9],2 µg/mL
same,Clarithromycin MIC,[10],0.5 µg/mL
same,Vancomycin MIC,[10],1 µg/mL
same,Clarithromycin MIC,[11],≤0.25 µg/mL
same,Vancomycin MIC,[11],1 µg/mL
same,Clarithromycin MIC,[12],0.25 µg/mL
same,Vancomycin MIC,[12],2 µg/mL
same,Clarithromycin MIC,[13],0.5 µg/mL
same,Vancomycin MIC,[13],16 µg/mL
same,Clarithromycin MIC,[14],0.5 µg/mL
same,Vancomycin MIC,[14],4 µg/mL
same,Clarithromycin MIC,[15],0.25 µg/mL
same,Vancomycin MIC,[15],2 µg/mL
same,Clarithromycin MIC,[16],0.5 µg/mL
same,Vancomycin MIC,[16],2 µg/mL
same,Clarithromycin MIC,[17],≤0.25 µg/mL
same,Vancomycin MIC,[17],2 µg/mL
same,Clarithromycin MIC,[18],0.5 µg/mL
same,Vancomycin MIC,[18],0.5 µg/mL
same,Clarithromycin MIC,[19],0.5 µg/mL
same,Vancomycin MIC (μg/mL),[19],Toxic
same,Clarithromycin MIC,[20],0.5 µg/mL
same,Vancomycin MIC,[20],32 µg/mL
same,Clarithromycin MIC,[21],0.5 µg/mL
same,Vancomycin MIC,[21],8 µg/mL
Nc1nc(-c2ccc(NC(=O)c3cc(Br)cc(Br)c3)cc2)c[nH]1 [Compound 4],MIC,"[1]; compound alone, AB5075, read-out: MIC",100 µM
same,Disrupted bacterial membrane (%),[2]; compound at 10 μM,44%
same,Disrupted bacterial membrane (%),[2]; compound at 20 μM,83% and 83.2%
same,Disrupted bacterial membrane (%),[2]; compound at 30 μM,87.4%
same,Clarithromycin MIC,[3],0.25 µg/mL
same,Vancomycin MIC,[3],8 µg/mL
same,Clarithromycin MIC,[4],0.5 µg/mL
same,Vancomycin MIC,[4],64 µg/mL
same,Clarithromycin MIC,[5],0.5 µg/mL
same,Vancomycin MIC,[5],128 µg/mL
same,Clarithromycin MIC,[6],0.5 µg/mL
same,Vancomycin MIC,[6],8 µg/mL
same,Clarithromycin MIC,[7],≤0.25 µg/mL
same,Vancomycin MIC,[7],64 µg/mL
same,Clarithromycin MIC,[8],0.25 µg/mL
same,Vancomycin MIC,[8],32 µg/mL
same,Clarithromycin MIC,[9],1 µg/mL
same,Vancomycin MIC,[9],16 µg/mL
same,Clarithromycin MIC,[10],≤0.25 µg/mL
same,Vancomycin MIC,[10],8 µg/mL
same,Clarithromycin MIC,[11],≤0.25 µg/mL
same,Vancomycin MIC,[11],4 µg/mL
same,Clarithromycin MIC,[12],0.25 µg/mL
same,Vancomycin MIC,[12],16 µg/mL
same,Clarithromycin MIC,[13],0.5 µg/mL
same,Vancomycin MIC,[13],8 µg/mL
same,Clarithromycin MIC,[14],0.5 µg/mL
same,Vancomycin MIC,[14],4 µg/mL
same,Clarithromycin MIC,[15],≤0.125 µg/mL
same,Vancomycin MIC,[15],32 µg/mL
same,Clarithromycin MIC,[16],1 µg/mL
same,Vancomycin MIC,[16],1 µg/mL
same,Clarithromycin MIC,[17],≤0.25 µg/mL
same,Vancomycin MIC,[17],64 µg/mL
same,Clarithromycin MIC,[18],0.5 µg/mL
same,Vancomycin MIC,[18],32 µg/mL
same,Clarithromycin MIC,[19],0.5 µg/mL
same,Vancomycin MIC (μg/mL),[19],Toxic
same,Clarithromycin MIC,[20],0.5 µg/mL
same,Vancomycin MIC,[20],32 µg/mL
same,Clarithromycin MIC,[21],0.5 µg/mL
same,Vancomycin MIC,[21],64 µg/mL

# From US20210283107A1, “Methods to Expand the Spectrum of Gram-Positive Antibiotics” (NORTH CAROLINA STATE UNIVERSITY, priority 2016, published 2021)
